From patent publication US20090239939A1, “Combinations for introducing nucleic acids into cells” (priority 1999, published 2009)

Assays:
complement system = assay: Complement activation assay (CH50)
human erythrocytes = assay: Erythrocyte lysis assay; format: cell-based; details: 37° C., 1 h, citrate pH 5 versus HBS, FIG. 5
Experimental: The assay serves the examination of the ability of peptides to lyse natural membranes in a pH-dependent manner.
The erythrocytes used in this assay were obtained as follows: 10 ml of fresh blood were taken from volunteers and diluted immediately into 10 ml of Alsever's solution (Whaley 1985; Plank et al., 1996). Aliquots of 3 ml each were washed 3 times with the corresponding buffer (40 ml each of citrate or HBS; after addition of buffer, shaking, centrifugation at 2500×g and discarding of the supernatant). The concentration of the erythrocytes was determined with an “extinction coefficient” of 2.394×10^−8 ml/cells at 541 nm. For deriving the extinction coefficient, the cell count in an aliquot was determined using a Neubauer chamber followed by measuring the absorbance of this solution at 541 nm upon addition of 1 μl 1% Triton X-100.
Aliquots of INF7 and copolymer-coupled INF7 (P3INF7), respectively, were provided in column 1 of a 96-well plate in 150 μl 10 mM sodium citrate pH 5/150 mM NaCl and in HBS buffer, respectively (usually corresponding to […] peptide). […] Then, the plates were centrifuged at 2500×g, 150 μl each of the supernatant was transferred into a flat bottom 96-well plate and released hemoglobin was determined at 410 nm using an ELISA plate reader. […] 0% lysis was determined from untreated samples in column 12.

GLFEAIEGFIENGWEGMIDGWYGC [INF7]
complement activation when incorporated in a polylysine-DNA complex (complement system; FIG. 4B): this complement activation disappears | complement activation (CH50 as percentage of CH50max) (complement system; substance itself incubated with human serum, FIG. 4): weak activator of complement | erythrocyte lysis activity (human erythrocytes): strong pH-dependent activity
